The values below come from patent publication US9650395B2, “Antibacterial compounds and methods for use” (PTC Therapeutics, Inc., priority 2011, dated 2017).

≈ marks a conversion by molar mass, not a printed value.

Experiment [1] concerns control Gram-negative E. coli 25922 strain. Nature of the experiment: Antibacterial activity, microbroth dilution MIC, E. coli 25922. The class given is cell-based, Escherichia coli. The conditions noted are these: Escherichia coli; E. coli 25922, microbroth dilution; read-out: MIC, 25922. Background: Dilution methods test growth across graded concentrations, often in twofold steps.

Experiment [2] relates to super sensitive Gram-negative Escherichia coli (E. coli) BAS849. Nature of the experiment: Antibacterial activity, microbroth dilution MIC, E. coli BAS849. The class given is cell-based. The conditions noted are these: Escherichia coli; E. coli BAS849, microbroth dilution; read-out: MIC, BAS849.
Experiment [3] concerns Gram-positive Staphylococcus aureus (S. aureus) 29213. Nature of the experiment: Antibacterial activity, microbroth dilution MIC, S. aureus 29213. The class given is cell-based. The conditions noted are these: Staphylococcus aureus; S. aureus 29213, microbroth dilution; read-out: MIC, 29213.

As to `CCc1cc(C(=O)O)c(=O)[nH]c1-c1ccc(OC)cc1N1CCCC1` [Cpd 35, 5-ethyl-6-[4-methoxy-2-(pyrrolidin-1-yl)phenyl]-2-oxo-1,2-dihydropyridine-3-carboxylic acid], the MIC in experiment [1], in experiment [2] and in experiment [3] was 12.5 to 150 µg/mL (≈ 36.5 to 438 µM) throughout.
Turning to `CCc1c(-c2ccc(OC)cc2OC)[nH]c(=O)c(C(=O)O)c1O` [Cpd 36, 6-(2,4-dimethoxyphenyl)-5-ethyl-4-hydroxy-2-oxo-1,2-dihydropyridine-3-carboxylic acid], the minimal inhibitory concentration (MIC) – broadly, the lowest concentration found to suppress growth – in experiment [1] lay within 12.5 to 150 µg/mL (≈ 39.1 to 470 µM); in experiment [2], 3.5 to 12.5 µg/mL (≈ 11 to 39.1 µM); in experiment [3], 12.5 to 150 µg/mL (≈ 39.1 to 470 µM).
As for `CCc1cc(C(=O)O)c(=O)[nH]c1-c1ccc(N2CCCC2)cc1C` [Cpd 37, 5-ethyl-6-[2-methyl-4-(pyrrolidin-1-yl)phenyl]-2-oxo-1,2-dihydropyridine-3-carboxylic acid], the MIC in experiment [1], in experiment [2] and in experiment [3] was 12.5 to 150 µg/mL (≈ 38.3 to 460 µM) in each case.
For the compound `CCc1c(-c2ccc(N3CCCC3)cc2C)[nH]c(=O)c(C(=O)O)c1O` [Cpd 39, 5-ethyl-4-hydroxy-6-[2-methyl-4-(pyrrolidin-1-yl)phenyl]-2-oxo-1,2-dihydropyridine-3-carboxylic acid], the minimum inhibitory concentration (MIC) was 12.5 to 150 µg/mL (≈ 36.5 to 438 µM) in experiment [1], 3.5 to 12.5 µg/mL (≈ 10.2 to 36.5 µM) in experiment [2] and 1 to 3.5 µg/mL (≈ 2.92 to 10.2 µM) in experiment [3].
The like results for `CCc1cc(C(=O)O)c(=O)[nH]c1-c1ccc(OC)cc1N(C)C` [Cpd 40, 6-[2-(dimethylamino)-4-methoxyphenyl]-5-ethyl-2-oxo-1,2-dihydropyridine-3-carboxylic acid] were, in that order, 12.5 to 150 µg/mL (≈ 39.5 to 474 µM), 12.5 to 150 µg/mL (≈ 39.5 to 474 µM) and 12.5 to 150 µg/mL (≈ 39.5 to 474 µM).
The like results for `CCc1cc(C(=O)O)c(=O)[nH]c1-c1ccc(N2CCCCC2)cc1F` [Cpd 43, 5-ethyl-6-[2-fluoro-4-(piperidin-1-yl)phenyl]-2-oxo-1,2-dihydropyridine-3-carboxylic acid] were, in that order, 12.5 to 150 µg/mL (≈ 36.3 to 436 µM), < 1 µg/mL and 12.5 to 150 µg/mL (≈ 36.3 to 436 µM).
For `CCc1cc(C(=O)O)c(=O)[nH]c1-c1ccccc1N1CCCC1` [Cpd 46, 5-ethyl-2-oxo-6-[2-(pyrrolidin-1-yl)phenyl]-1,2-dihydropyridine-3-carboxylic acid], the minimal inhibitory concentration (MIC) in experiment [1], in experiment [2] and in experiment [3] was 12.5 to 150 µg/mL (≈ 40 to 480 µM) in each case.
For `CCc1c(-c2ccccc2N2CCCC2)[nH]c(=O)c(C(=O)O)c1O` [Cpd 47, 5-ethyl-4-hydroxy-2-oxo-6-[2-(pyrrolidin-1-yl)phenyl]-1,2-dihydropyridine-3-carboxylic acid], the figures for the MIC in experiment [1], in experiment [2] and in experiment [3] were 12.5 to 150 µg/mL (≈ 38.1 to 457 µM), 1 to 3.5 µg/mL (≈ 3.05 to 10.7 µM) and 3.5 to 12.5 µg/mL (≈ 10.7 to 38.1 µM), respectively.
The like results for `CCc1c(-c2ccc(OC)cc2N2CCCC2)[nH]c(=O)c(C(=O)O)c1O` [Cpd 48, 5-ethyl-4-hydroxy-6-[4-methoxy-2-(pyrrolidin-1-yl)phenyl]-2-oxo-1,2-dihydropyridine-3-carboxylic acid] were, in that order, 12.5 to 150 µg/mL (≈ 34.9 to 419 µM), 3.5 to 12.5 µg/mL (≈ 9.77 to 34.9 µM) and 3.5 to 12.5 µg/mL (≈ 9.77 to 34.9 µM).
The like results for `CCc1c(-c2ccc(N3CCCCC3)cc2C)[nH]c(=O)c(C(=O)O)c1O` [Cpd 51, 5-ethyl-4-hydroxy-6-[2-methyl-4-(piperidin-1-yl)phenyl]-2-oxo-1,2-dihydropyridine-3-carboxylic acid] were, in that order, 12.5 to 150 µg/mL (≈ 35.1 to 421 µM), 3.5 to 12.5 µg/mL (≈ 9.82 to 35.1 µM) and 3.5 to 12.5 µg/mL (≈ 9.82 to 35.1 µM).
The matching figures for `CCc1cc(C(=O)O)c(=O)[nH]c1-c1ccc(N2CCCCC2)cc1C` [Cpd 52, 5-ethyl-6-[2-methyl-4-(piperidin-1-yl)phenyl]-2-oxo-1,2-dihydropyridine-3-carboxylic acid]: 12.5 to 150 µg/mL (≈ 36.7 to 441 µM), 12.5 to 150 µg/mL (≈ 36.7 to 441 µM) and 12.5 to 150 µg/mL (≈ 36.7 to 441 µM).
`CCc1cc(C(=O)O)c(=O)[nH]c1-c1ccccc1N(C)C` [Cpd 54, 6-[2-(dimethylamino)phenyl]-5-ethyl-2-oxo-1,2-dihydropyridine-3-carboxylic acid]: the MIC in experiment [1], in experiment [2] and in experiment [3] was 12.5 to 150 µg/mL (≈ 43.7 to 524 µM) each time.
With `CCc1c(-c2ccc(N(C)C)cc2C)[nH]c(=O)c(C(=O)O)c1O` [Cpd 56, 6-[4-(dimethylamino)-2-methylphenyl]-5-ethyl-4-hydroxy-2-oxo-1,2-dihydropyridine-3-carboxylic acid], the minimal inhibitory concentration (MIC) lay within 12.5 to 150 µg/mL (≈ 39.5 to 474 µM) in experiment [1], 3.5 to 12.5 µg/mL (≈ 11.1 to 39.5 µM) in experiment [2] and 3.5 to 12.5 µg/mL (≈ 11.1 to 39.5 µM) in experiment [3].
As to `CCc1cc(C(=O)O)c(=O)[nH]c1-c1ccc(N(C)C)cc1C` [Cpd 57, 6-[4-(dimethylamino)-2-methylphenyl]-5-ethyl-2-oxo-1,2-dihydropyridine-3-carboxylic acid], the minimal inhibitory concentration (MIC) in experiment [1], in experiment [2] and in experiment [3] was 12.5 to 150 µg/mL (≈ 41.6 to 499 µM) throughout.
On to `CCc1c(-c2ccccc2N(C)C)[nH]c(=O)c(C(=O)O)c1O` [Cpd 58, 6-[2-(dimethylamino)phenyl]-5-ethyl-4-hydroxy-2-oxo-1,2-dihydropyridine-3-carboxylic acid], for which the values for the minimum inhibitory concentration (MIC) in experiment [1], in experiment [2] and in experiment [3] were 12.5 to 150 µg/mL (≈ 41.3 to 496 µM), 3.5 to 12.5 µg/mL (≈ 11.6 to 41.3 µM) and 3.5 to 12.5 µg/mL (≈ 11.6 to 41.3 µM), respectively.
As for `CCc1cc(C(=O)O)c(=O)[nH]c1-c1ccc(N2CCCCC2)cc1OC` [Cpd 59, 5-ethyl-6-[2-methoxy-4-(piperidin-1-yl)phenyl]-2-oxo-1,2-dihydropyridine-3-carboxylic acid], the MIC in experiment [1], in experiment [2] and in experiment [3] was 12.5 to 150 µg/mL (≈ 35.1 to 421 µM) in each case.
On to `CCc1c(-c2ccc(OC)cc2N(C)C)[nH]c(=O)c(C(=O)O)c1O` [Cpd 60, 6-[2-(dimethylamino)-4-methoxyphenyl]-5-ethyl-4-hydroxy-2-oxo-1,2-dihydropyridine-3-carboxylic acid], for which the minimum inhibitory concentration (MIC) lay within 12.5 to 150 µg/mL (≈ 37.6 to 451 µM) in experiment [1], 3.5 to 12.5 µg/mL (≈ 10.5 to 37.6 µM) in experiment [2] and 3.5 to 12.5 µg/mL (≈ 10.5 to 37.6 µM) in experiment [3].
In the case of `CCc1c(-c2ccc(N(C)C)cc2OC)[nH]c(=O)c(C(=O)O)c1O` [Cpd 61, 6-[4-(dimethylamino)-2-methoxyphenyl]-5-ethyl-4-hydroxy-2-oxo-1,2-dihydropyridine-3-carboxylic acid], the minimal inhibitory concentration (MIC) was 12.5 to 150 µg/mL (≈ 37.6 to 451 µM) in experiment [1], 3.5 to 12.5 µg/mL (≈ 10.5 to 37.6 µM) in experiment [2] and 3.5 to 12.5 µg/mL (≈ 10.5 to 37.6 µM) in experiment [3].
As to `CCc1cc(C(=O)O)c(=O)[nH]c1-c1ccc(N(C)C)cc1OC` [Cpd 62, 6-[4-(dimethylamino)-2-methoxyphenyl]-5-ethyl-2-oxo-1,2-dihydropyridine-3-carboxylic acid], the MIC in experiment [1], in experiment [2] and in experiment [3] was 12.5 to 150 µg/mL (≈ 39.5 to 474 µM) throughout.
In the case of `CCc1c(-c2ccc(N(C)C)c(C)c2)[nH]c(=O)c(C(=O)O)c1O` [Cpd 63, 6-[4-(dimethylamino)-3-methylphenyl]-5-ethyl-4-hydroxy-2-oxo-1,2-dihydropyridine-3-carboxylic acid], the minimal inhibitory concentration (MIC) was in the range of 12.5 to 150 µg/mL (≈ 39.5 to 474 µM) in experiment [1], 1 to 3.5 µg/mL (≈ 3.16 to 11.1 µM) in experiment [2] and 3.5 to 12.5 µg/mL (≈ 11.1 to 39.5 µM) in experiment [3].
Regarding `CCc1cc(C(=O)O)c(=O)[nH]c1-c1ccc(N(C)C)c(OC)c1` [Cpd 64, 6-[4-(dimethylamino)-3-methoxyphenyl]-5-ethyl-2-oxo-1,2-dihydropyridine-3-carboxylic acid], the figures for the MIC in experiment [1], in experiment [2] and in experiment [3] were 12.5 to 150 µg/mL (≈ 39.5 to 474 µM), 3.5 to 12.5 µg/mL (≈ 11.1 to 39.5 µM) and 12.5 to 150 µg/mL (≈ 39.5 to 474 µM), respectively.
Regarding `CCc1c(-c2ccc(N(C)C)c(OC)c2)[nH]c(=O)c(C(=O)O)c1O` [Cpd 65, 6-[4-(dimethylamino)-3-methoxyphenyl]-5-ethyl-4-hydroxy-2-oxo-1,2-dihydropyridine-3-carboxylic acid], the MIC lay within 12.5 to 150 µg/mL (≈ 37.6 to 451 µM) in experiment [1], 3.5 to 12.5 µg/mL (≈ 10.5 to 37.6 µM) in experiment [2] and 12.5 to 150 µg/mL (≈ 37.6 to 451 µM) in experiment [3].
